Measured values published in patent US9572787B2, “Inhibition of renal fibrosis” (Rhode Island Hospital, priority 2011, dated 2017).

What was measured:
NRK-49F cells = assay: S3I-201 in cultured renal interstitial fibroblasts (immunoblot, qRT-PCR); assay type: cell-based, rat
Experimental: Cell culture and treatments. NRK-49F cells were cultured in Dulbecco's modified eagle's medium (DMEM) (Sigma-Aldrich, St. Louis, Mo.) containing 10% fetal bovine serum (FBS), 0.5% penicillin and streptomycin in an atmosphere of 5% CO2 and 95% air at 37° C. Western blot analysis and Sirius red and immunofluorescent staining were carried out according to standard methods. Quantitative real-time PCR. Real time qRT-PCR amplifications were performed in 20 μl reactions. The amplification protocol was as follows: denaturation for 10 minutes and enzyme activation at 95° C., 40 cycles of 95° C.×10 sec, 59° C.×30 sec, and 72° C.×20 sec, followed by one step […] at 72° C. for 5 minutes. Relative mRNA abundance was determined from the ratios of specific mRNA to 18S ribosomal RNA measured in the same samples, and fold change was calculated relative to the group of sham-operated mice with vehicle treatment.

obstructive kidney (UUO) = assay: UUO model, daily S3I-201 treatment; assay type: in vivo, mouse; settings: for STAT3 phosphorylation: 10 mg/kg i.p. daily
Experimental: Unilateral […] obstruction (UUO) model and S3I-201 treatment. The UUO model was established in male C57 black mice that weighed 20-25 g (Jackson Laboratory, Bar Harbor, Me.) as described previously. The contralateral kidneys were used as controls. To examine the efficacy of S3I-201 in renal fibrosis after UUO injury, S3I-201 (10 mg/kg) in 50 μl of dimethyl sulfoxide (DMSO) was intraperitoneally administered to mice immediately after ureter ligation and then given daily for 6 or 13 days. Mice were randomized into 4 groups with 6-7 mice in each group as follows: (1) sham injury with DMSO as vehicle; (2) sham injury with S3I-201; (3) UUO injury with DMSO; (4) UUO injury with S3I-201.
Western blot analysis and Sirius red and immunofluorescent staining were carried out according to standard methods.
Quantitative real-time PCR. Real time qRT-PCR amplifications were performed in 20 μl reactions. The amplification protocol was as follows: denaturation for 10 minutes and enzyme activation at 95° C., 40 cycles of 95° C.×10 sec, 59° C.×30 sec, and 72° C.×20 sec, followed by one step […] at 72° C. for 5 minutes. Relative mRNA abundance was determined from the ratios of specific mRNA to 18S ribosomal RNA measured in the same samples, and fold change was calculated relative to the group of sham-operated mice with vehicle treatment.
ELISA. Protein levels of TGF-β1, TNF-α, and IL-1β in kidney homogenates were determined using specific sandwich enzyme immunometric assay kits, ELISA Ready-SET-Go (eBioscience, Inc. San Diego, Calif.) as described previously. The results were normalized by total protein content in kidney homogenates.
In situ TUNEL assays. Terminal deoxynucleotidyl transferase biotin-dUTP nick end-labeling (TUNEL) staining was used to detect DNA strand breaks using a detection kit, according to the instructions provided by the manufacturer. The number of TUNEL-positive nuclei per field was evaluated in five fields per section and five sections per kidney.

[1] = dose- and time-dependent, 24 h dose series, 50 μM time course

With `Cc1ccc(S(=O)(=O)OCC(=O)Nc2ccc(C(=O)O)c(O)c2)cc1` [S3I-201] the “expression of p-STAT3” value (NRK-49F cells; 100 μM, 3 h) was “complete inhibition”, the “TGF-β1 mRNA expression” value (NRK-49F cells; 5% FBS, 50 μM S3I-201, 6 h) was “significantly decreased” and the “TβRII mRNA expression” value (NRK-49F cells; 5% FBS, 50 μM S3I-201, 6 h) was “significantly decreased”. For the same compound, the “TβRIII mRNA expression” value (NRK-49F cells; 5% FBS, 50 μM S3I-201, 6 h) was “significantly decreased”, the “expression of p-STAT1” value (NRK-49F cells; 3 h, dose dependent) was “increased” and the STAT5 phosphorylation (NRK-49F cells; 3 h, indicated concentrations) was “did not affect”. For the same compound, the expression of fibronectin (NRK-49F cells; [1]) was “dramatically decreased”, the “expression of α-SMA” value (NRK-49F cells; [1]) was “dramatically decreased” and the “apoptosis of interstitial cells (TUNEL)” value (obstructive kidney (UUO); 10 mg/kg daily for 7 days) was “increased apoptosis”. The “apoptosis of renal tubular cells (TUNEL)” value (obstructive kidney (UUO); 10 mg/kg daily for 7 days) was “did not induce apoptosis”, the “proliferation of interstitial cells (phospho-histone H3 Ser 10)” value (obstructive kidney (UUO); 10 mg/kg daily for 7 days) was “decreased their proliferation” and the “ICAM-1 mRNA expression” value (obstructive kidney (UUO); 10 mg/kg daily, day 7) was “reduced”. The “IL-1β mRNA expression” value (obstructive kidney (UUO); 10 mg/kg daily, day 7) was “reduced”, the “IL-1β protein (ELISA)” value (obstructive kidney (UUO); 10 mg/kg daily, day 7) was “significantly suppressed” and the Sirius red-positive areas (obstructive kidney (UUO); 10 mg/kg daily, day 7) was “significantly reduced”. For the same compound, the “TGF-β1 mRNA expression” value (obstructive kidney (UUO); 10 mg/kg daily, day 7) was “reduced their levels”, the “TGF-β1 protein (ELISA)” value (obstructive kidney (UUO); 10 mg/kg daily, day 7) was “decreased” and the “TNF-α mRNA expression” value (obstructive kidney (UUO); 10 mg/kg daily, day 7) was “reduced”. The “TNF-α protein (ELISA)” value (obstructive kidney (UUO); 10 mg/kg daily, day 7) was “significantly suppressed”, the “TβRI mRNA expression at the basal level” value (obstructive kidney (UUO); 10 mg/kg daily, day 7) was “not affected” and the “TβRII mRNA expression” value (obstructive kidney (UUO); 10 mg/kg daily, day 7) was “reduced their levels”. The “TβRIII mRNA basal level” value (obstructive kidney (UUO); 10 mg/kg daily, day 7) was “reduced the basal level”, the “UUO injury-induced MCP-1 mRNA expression” value (obstructive kidney (UUO); 10 mg/kg daily, day 7) was “did not affect” and the “UUO-induced collagen type 1 mRNA expression” value (obstructive kidney (UUO); 10 mg/kg daily, day 7) was “attenuated this response”. For the same compound, the “basal level of collagen type 1 expression in control kidneys” value (obstructive kidney (UUO); 10 mg/kg daily, day 7) was “did not affect”, the “basal level of α-SMA expression in control kidneys” value (obstructive kidney (UUO); 10 mg/kg daily, day 7) was “did not affect” and the “collagen type 1 expression in obstructive kidneys” value (obstructive kidney (UUO); 10 mg/kg daily, day 7) was “decreased collagen type 1 to the basal level”. The “decrease in expression of ECM components (Sirius red, semi-quantitative)” value (obstructive kidney (UUO); 10 mg/kg daily, day 7) was “approximately 60%”, the expression of snail (obstructive kidney (UUO); 10 mg/kg daily, day 7) was “did not affect” and the “expression of β-catenin” value (obstructive kidney (UUO); 10 mg/kg daily, day 7) was “did not affect”. For the same compound, the “fibronectin expression (immunoblot densitometry)” value (obstructive kidney (UUO); 10 mg/kg daily, day 7) was “blocked”, the “fibronectin expression (immunostaining)” value (obstructive kidney (UUO); 10 mg/kg daily, day 7) was “decreased its expression” and the “leukocyte infiltration (naphthol AS-D chloroacetate esterase staining)” value (obstructive kidney (UUO); 10 mg/kg daily, day 7) was “reduced leukocyte infiltration to basal levels”. The “α-SMA expression in obstructive kidneys” value (obstructive kidney (UUO); 10 mg/kg daily, day 7) was “inhibited”, the “total STAT3 expression” value (obstructive kidney (UUO); 10 mg/kg daily, day 7 and day 14) was “not affected” and the “collagen type 1 expression” value (obstructive kidney (UUO); 10 mg/kg daily, day 14) was “decreased”. For the same compound, the α-SMA expression (obstructive kidney (UUO); 10 mg/kg daily, day 14) was “decreased”, the STAT3 phosphorylation (obstructive kidney (UUO); day 7) was “largely suppressed” and the STAT3 phosphorylation (obstructive kidney (UUO); day 14) was “small inhibition”.
